{
  "source": "patent US9630894B2",
  "about": "“Energy efficient method and apparatus for the extraction of biomolecules from dilute aqueous solution” (DYNASEP INC., priority 2012, dated 2017)",
  "type_in_all_cases": "physicochemical",
  "key": {"[1]": {"experiment": "Packed-column extraction of ethanol and ABE solutions with liquid DME, incremental distribution coefficients", "conditions": "for Distribution Coefficient: ABE solution", "description": "The tests were carried out in a 50-inch long by 0.68-inch internal diameter (ID) column containing stainless steel distillation packing to increase mass transfer between the liquid DME and the aqueous solution. The flow rate of the liquid DME for all the tests was about […], which calculates to a superficial velocity of the liquid DME of ˜0.3 cm/sec.\nFor each test, about 65 g of a pre-made feed solution was charged to the extraction column, and the column was sealed. DME was introduced into the system and pressure was maintained at 250 psi with the lab pump. Each run was carried out at ambient temperature (about 30° C.), and flow was manually controlled with the pressure-reduction valve.\nAbout ⅓ of the charge was extracted in each test with DME in three fractions, and the raffinate was collected at the end of each test in two fractions. In the event that the concentration of ethanol, or ABE, in the raffinate was not homogeneous along the length of the column, the raffinate was collected in two fractions where RAF#1 was the first (bottom) portion of the raffinate drained and RAF#2 was the remaining (upper) portion.\nAll samples along with controls were sent to R.D. Laboratories (Washington, Mo.) for gas chromatography (GC) analysis.\nThe distribution coefficient (DC) is calculated as the ratio of the concentration of the component in the extract (y) phase to the concentration of the component in the raffinate (x) phase, or DC=Cy/Cx. Using the material balance information in the tables above, and the component analysis supplied by R.D. Labs, the incremental DCs for each fraction were calculated. These DCs are calculated using the conservative assumption that there is no dissolved DME in the liquid phase remaining in the extractor."}, "[2]": {"experiment": "Distribution coefficients of ABE mixtures between DME and aqueous phase in agitated pressure vessel, HPLC", "description": "The compositions of the aqueous mixtures were based on concentrations typically produced in a cellulosic fermentation.\nMixtures were charged to a pressure vessel and agitated to provide adequate contacting between the aqueous and solvent (DME) phases. Heat tape was used to control the temperature of the liquid that was measured by thermocouples. Pressure and temperature measurements were taken every five minutes. After temperature and pressure stabilization agitation was ceased and the liquid phases were allowed to fully settle.\nA mass balance was also performed on each component of the ABE and BE mixtures to determine a degree of accuracy of the results."}, "[3]": {"experiment": "CCC extraction with DME of clarified fermentation broth from Clostridium acetobutylicum, GC and DNS assay", "description": "This example describes three different runs of the CCC with fermentation broth from Clostridium acetobutylicum. […] The fermentation was intentionally interrupted prior to completion.\nThe extraction column operated at room temperature (˜25° C.) throughout the column. Periodic extract and raffinate samples were taken and analyzed for the constituents in the extract and raffinate discharges.\nThis example describes three different runs. In all cases, the mass of solvent to the mass of feed ratio (S/F) was 0.9. In all example the fermentation broth was first centrifuged to removal all cellular matter. Thus, the feed solution was clarified. In the case of the first run, the following components were measured via gas chromatograph (GC) analysis using external standard calibration. The external standard was run prior to analyzing the samples to provide individual calibration between peak area and the respective constituent under measure. […] Acetate was the conjugate base of acetic acid. Butyrate was the conjugate base of butyric acid. All components were quantified in the extract and raffinate. Since the extract and raffinate are mostly water and DME dissolves in water to approximately 20 wt. %, the samples were allowed to degas over a 24 hour period.\nDuring the run, samples were taken of the extract and raffinate. In the case of the extract, the bulk DME was removed by reduction of pressure and addition of heat to flash the DME from the water and other solution constituents.\nExtract and raffinate samples were collected at periodic intervals during the CCC testing. […] Glucose was measured via a DNS (3,5-dinitrosalicylic acid) assay.\nIn cases where the extract formed a two phase solution, the extract samples were diluted with distilled water to create a single phase and homogenous sample prior to GC. The dilution factor was then used to correct the GC measurements for concentrations prior to dilution."}},
  "data": [
    {"smiles": "CC(C)=O", "note": "[Acetone, acetone]", "values": [
      {"measurement": "Distribution Coefficient", "setting": "[1]; fraction F1, liquid DME", "result": 0.24},
      {"measurement": "Distribution Coefficient", "setting": "[1]; fraction F2, liquid DME", "result": 0.16},
      {"measurement": "Distribution Coefficient", "setting": "[1]; fraction F3, liquid DME", "result": 0.04},
      {"measurement": "distribution coefficient, previous measurements", "setting": "[1]; previous results, DME/aqueous", "result": 0.25},
      {"measurement": "distribution coefficient (slope of line fit)", "setting": "[2]; 38° C.", "result": 1.27},
      {"measurement": "DC", "setting": "[2]; test ABE1, […] C., 104 psig", "result": 1.28},
      {"measurement": "DC", "setting": "[2]; test ABE2, 38.3 ° C., 102 psig", "result": 1.25},
      {"measurement": "DC", "setting": "[2]; test ABE3, 38.3 ° C., 103 psig", "result": 1.23},
      {"measurement": "DC", "setting": "[2]; test ABE4, 38.0 ° C., 103 psig", "result": 1.34},
      {"measurement": "concentration in sample", "setting": "[3]; Run 3, Extract Bot, time 31 min", "result": 7880, "unit": "µg/mL"},
      {"measurement": "concentration in sample", "setting": "[3]; Run 3, Extract Bot, time 37 min", "result": 7900, "unit": "µg/mL"},
      {"measurement": "concentration in sample", "setting": "[3]; Run 3, Extract Top, time 31 min", "result": 7030, "unit": "µg/mL"},
      {"measurement": "concentration in sample", "setting": "[3]; Run 3, Extract Top, time 37 min", "result": 6440, "unit": "µg/mL"},
      {"measurement": "concentration in sample", "setting": "[3]; Run 3, Extract, time 22 min", "result": 2980, "unit": "µg/mL"},
      {"measurement": "concentration in sample", "setting": "[3]; Run 3, Extract, time 27 min", "result": 5300, "unit": "µg/mL"},
      {"measurement": "concentration in sample", "setting": "[3]; Run 3, Extract, time 43 min", "result": 5140, "unit": "µg/mL"},
      {"measurement": "concentration in sample", "setting": "[3]; Run 3, Extract, time 70 min", "result": 4610, "unit": "µg/mL"},
      {"measurement": "concentration in sample", "setting": "[3]; Run 3, Extract, time 74 min", "result": 4090, "unit": "µg/mL"},
      {"measurement": "concentration in sample", "setting": "[3]; Run 3, Extract, time 78 min", "result": 3830, "unit": "µg/mL"},
      {"measurement": "concentration in sample", "setting": "[3]; Run 3, Extract, time 82 min", "result": 4630, "unit": "µg/mL"},
      {"measurement": "concentration in sample", "setting": "[3]; Run 3, Feed, time 0 min", "result": 4870, "unit": "µg/mL"},
      {"measurement": "concentration in sample", "setting": "[3]; Run 3, Raffinate, time 22 min", "result": 1200, "unit": "µg/mL"},
      {"measurement": "concentration in sample", "setting": "[3]; Run 3, Raffinate, time 27 min", "result": 400, "unit": "µg/mL"},
      {"measurement": "concentration in sample", "setting": "[3]; Run 3, Raffinate, time 31 min", "result": 310, "unit": "µg/mL"},
      {"measurement": "concentration in sample", "setting": "[3]; Run 3, Raffinate, time 37 min", "result": 140, "unit": "µg/mL"},
      {"measurement": "concentration in sample", "setting": "[3]; Run 3, Raffinate, time 43 min", "result": 150, "unit": "µg/mL"},
      {"measurement": "concentration in sample", "setting": "[3]; Run 3, Raffinate, time 70 min", "result": 110, "unit": "µg/mL"},
      {"measurement": "concentration in sample", "setting": "[3]; Run 3, Raffinate, time 74 min", "result": 600, "unit": "µg/mL"},
      {"measurement": "concentration in sample", "setting": "[3]; Run 3, Raffinate, time 78 min", "result": 820, "unit": "µg/mL"},
      {"measurement": "concentration in sample", "setting": "[3]; Run 3, Raffinate, time 82 min", "result": 460, "unit": "µg/mL"}
    ]}
  ]
}
